Each block holds one substance with its values, some of them ahead of it.
Legend:
Assay in all cases: Phosphomimetic ProP-PD selection with NGS
Scribble PDZ3 = format: binding, human; conditions: bait Scribble PDZ3
Protocol: (§1) Phage selections were carried out for four rounds following a protocol by Huang and Sidhu (Huang & Sidhu, 2011) with minor modifications. Non‐specific binding phage was removed by pre‐selections against immobilized GST throughout the selection. The selections against the (pre‐)phosphorylated wild‐type library were performed in 50 mM HEPES (pH 7.4) and 150 mM NaCl (HBS) following the same procedure after pre‐phosphorylation of the library.
(§2) • Immobilize proteins (15 μg in 100 μl PBS) in a 96‐well MaxiSorp microtiter plate (NUNC) overnight at 4°C. • Start a 2YT culture of E. coli Omnimax supplemented with 100 μg/ml tetracycline to retain the F pilus epitope. • Block the wells with 200 μl 0.5% BSA in PBS for 2 h at 4°C. • Precipitate naïve phage library (10^11 cfu per selection) or amplified phage pool from the previous round of selection by adding one‐fifth the volume of PEG/NaCl. • Incubate on ice for 10 min, and pellet precipitated phage by centrifugation at 5,300 g for 15 min. Resuspend the phage pellet in 100 μl PBS per selection. • Add 100 μl of phage solution to the GST‐coated pre‐selection wells and incubate for 1 h. • Transfer the phage solution to the immobilized target proteins and allow it to bind for 2 h at 8°C. • Wash the plate four times with 200 μl cold wash buffer (PBS, 0.05% Tween‐20). • Elute bound phage by incubation with 100 μl log phase (0.6–0.8 OD600) E. coli Omnimax for 30 min at 37°C with shaking (200 RPM). • Add 10^12 cfu/ml M13K07 helper phage for hyperinfection of the bacteria and incubate as above for 45 min. • Transfer the bacterial culture to 10 ml 2YT supplemented with 50 μg/ml carbenicillin, 25 μg/ml kanamycin, and 300 μM IPTG and incubate overnight at 37°C while shaking. • Perform phage pool ELISA to monitor the progress of the selection as described previously (Huang & Sidhu, 2011).
(§3) The naïve library and the enriched phage pools of the third day of selection were amplified and barcoded by PCR and analyzed by NGS as described elsewhere (McLaughlin & Sidhu, 2013; Ivarsson et al, 2014). The reads were demultiplexed using the barcode sequences and filtered by discarding sequences with a Phred quality score under 30. Sequences were mapped to the original library using Bowtie (Langmead et al, 2009) with two mismatches between reads and library sequence. Nucleotide mutations leading to amino acid substitutions were subsequently removed. Cutoff values of NGS counts were assigned for each pool. PWMs were generated based on the remaining peptides (aligned on the C‐termini) using WebLogo (Crooks et al, 2004).
(§4) However, there was no significant correlation of the actual read counts (selection “strength”) and the initial representation in the library, reflecting the strong selection during phage display (wt+mimetic: P‐value: 0.49, ρ = −0.08, mimetic only: P‐value: 0.069, ρ = −0.2, wt only: P‐value: 0.12, ρ = 0.17). Consequently, the amount of reads for each binder after phage display is not a function of the amount of input reads in the naïve library and no modeling based on the input library frequencies to score the interactions is necessary. To allow for comparison between replicate selections, we used the fraction of NGS reads within a certain set, instead of the absolute number of NGS reads, as the absolute numbers differ between different NGS batches.

Scribble PDZ1 = target: T1, Scribble PDZ1 (Homo sapiens, UniProt Q14160); format: binding; conditions: for Mean fraction #NGS counts wt peptide / total counts selection / Mean fraction #NGS counts mimetic peptide / total count selection: bait Scribble PDZ1, mean of selections 1-3
T1 construct: human Scribble PDZ1 aa 719–829 in; made in house; host or cells: E. coli BL21 Gold (DE3)
Protocol: as §1, §2, §3, §4

DLG1 PDZ2 = target: T2, DLG1 PDZ2 (Homo sapiens, UniProt Q12959); format: binding; conditions: mean of selections 1-3, bait DLG1 PDZ2
T2 construct: human DLG1 PDZ2 aa 311–407 in a modified pRSET vector 40; made in house; host or cells: E. coli BL21 Gold (DE3)
Protocol: as §1, §2, §3, §4

[1] = mean of selections 1-3, wild type peptide
[2] = mean of selections 1-3, phosphomimetic peptide

T1 sequence (Q14160 719-829): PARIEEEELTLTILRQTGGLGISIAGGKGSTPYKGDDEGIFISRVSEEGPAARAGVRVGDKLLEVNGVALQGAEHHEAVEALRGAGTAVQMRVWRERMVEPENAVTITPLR
T2 sequence (Q12959 311-407): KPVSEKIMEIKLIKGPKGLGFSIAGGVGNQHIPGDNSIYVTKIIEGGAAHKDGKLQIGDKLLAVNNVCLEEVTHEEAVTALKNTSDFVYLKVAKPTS

Substance: RPLRREEEI
Mean fraction #NGS counts mimetic peptide / total count selection (Scribble PDZ3; mean over selections 1-3): 0

Mean fraction #NGS counts wt peptide / total counts selection (Scribble PDZ1): 0
Substance: ISWLAFSVL

Mean fraction #NGS counts mimetic peptide / total count selection (DLG1 PDZ2): 0
Mean fraction #NGS counts wt peptide / total counts selection (DLG1 PDZ2): 1.436e-5
Substance: ISYRRESAI
Mean fraction #NGS counts wt peptide / total counts selection (Scribble PDZ3; mean over selections 1-3): 0.0002548

Mean fraction #NGS counts wt peptide / total counts selection (Scribble PDZ1): 0.0009794
Substance: PIHSLETSL
Mean fraction #NGS counts wt peptide / total counts selection (Scribble PDZ3; [1]): 0.001163
Mean fraction #NGS counts wt peptide / total counts selection (Scribble PDZ3; mean over selections 1-3): 0.001163

Mean fraction #NGS counts mimetic peptide / total count selection (DLG1 PDZ2): 0.0001421
Substance: MRLQEETEV

Mean fraction #NGS counts mimetic peptide / total count selection (Scribble PDZ1): 0
Substance: VREKLPSNL

Mean fraction #NGS counts mimetic peptide / total count selection (Scribble PDZ1): 2.8202e-5
Substance: LAPNIIEQL

Mean fraction #NGS counts mimetic peptide / total count selection (DLG1 PDZ2): 6.06e-5
Substance: GLMKRRSEV

Substance: DSSILSTVV
Mean fraction #NGS counts wt peptide / total counts selection (DLG1 PDZ2): 0.0001102

Mean fraction #NGS counts wt peptide / total counts selection (Scribble PDZ1): 0.000119
Substance: LAPNIISQL

Mean fraction #NGS counts mimetic peptide / total count selection (Scribble PDZ1): 0
Substance: PLHSLEESL
Mean fraction #NGS counts mimetic peptide / total count selection (Scribble PDZ3; mean over selections 1-3): 0

Substance: KSEPFLTWL
Mean fraction #NGS counts wt peptide / total counts selection (Scribble PDZ3; mean over selections 1-3): 0.002017

Substance: IPLTRETTF
Mean fraction #NGS counts mimetic peptide / total count selection (Scribble PDZ3; mean over selections 1-3): 0.0004175

Mean fraction #NGS counts wt peptide / total counts selection (Scribble PDZ1): 0
Substance: PTHVLQTQI

Substance: SRKRTESFL
Mean fraction #NGS counts mimetic peptide / total count selection (Scribble PDZ3; mean over selections 1-3): 0.0004518

Mean fraction #NGS counts mimetic peptide / total count selection (Scribble PDZ1): 0.0001138
Substance: EPTVHVTEL
Mean fraction #NGS counts mimetic peptide / total count selection (Scribble PDZ3; mean over selections 1-3): 1.586e-5

Mean fraction #NGS counts mimetic peptide / total count selection (Scribble PDZ1): 4.38e-5
Substance: IEWLAFSVL

Substance: LSIEKETKL
Mean fraction #NGS counts wt peptide / total counts selection (Scribble PDZ3; mean over selections 1-3): 0.01518

Substance: SRKRTSSFL
Mean fraction #NGS counts wt peptide / total counts selection (Scribble PDZ3; mean over selections 1-3): 0

Substance: IPLTRTTTF
Mean fraction #NGS counts wt peptide / total counts selection (Scribble PDZ3; mean over selections 1-3): 0

Mean fraction #NGS counts mimetic peptide / total count selection (Scribble PDZ1): 4.38e-5
Substance: VRKLPETEL
Mean fraction #NGS counts mimetic peptide / total count selection (Scribble PDZ3; [2]): 0.01059

Mean fraction #NGS counts mimetic peptide / total count selection (DLG1 PDZ2): 0
Mean fraction #NGS counts wt peptide / total counts selection (DLG1 PDZ2): 0.0003449
Substance: LKSGRDSTV

Substance: ERLEYETEL
Mean fraction #NGS counts mimetic peptide / total count selection (Scribble PDZ3; [2]): 3.548e-5

Mean fraction #NGS counts mimetic peptide / total count selection (DLG1 PDZ2): 0.0002182
Substance: HEIKQETAV

Substance: PIHELETEL
Mean fraction #NGS counts mimetic peptide / total count selection (Scribble PDZ3; [2]): 0.0005099

Substance: KKRMVESPL
Mean fraction #NGS counts wt peptide / total counts selection (Scribble PDZ3; mean over selections 1-3): 0.000138

Substance: SQSRMETNM
Mean fraction #NGS counts mimetic peptide / total count selection (Scribble PDZ3; mean over selections 1-3): 0.0002587

Mean fraction #NGS counts wt peptide / total counts selection (Scribble PDZ1): 0
Substance: HEKVFTSAL
Mean fraction #NGS counts wt peptide / total counts selection (Scribble PDZ3; mean over selections 1-3): 0.0001136

Mean fraction #NGS counts mimetic peptide / total count selection (DLG1 PDZ2; phosphomimetic peptide): 9.343e-5
Substance: GEGGRQSVV

Substance: DSEILETVV
Mean fraction #NGS counts mimetic peptide / total count selection (DLG1 PDZ2): 0

Mean fraction #NGS counts wt peptide / total counts selection (Scribble PDZ1): 0.0001068
Substance: SPTVHVTEL
Mean fraction #NGS counts wt peptide / total counts selection (Scribble PDZ3; mean over selections 1-3): 5.538e-5

Substance: TMFLRETEL‐coo‐
occurrence in NGS of the selection relative to wild‐type counterpart (Scribble PDZ1; phage-displayed peptide, phosphomimetic ProP‐PD selection against Scribble PDZ1): three times more

Mean fraction #NGS counts wt peptide / total counts selection (Scribble PDZ1): 0.000274
Substance: DKESFLTWL
Mean fraction #NGS counts wt peptide / total counts selection (Scribble PDZ3; mean over selections 1-3): 0.01024

Mean fraction #NGS counts mimetic peptide / total count selection (Scribble PDZ1): 0.01704
Substance: PLHSLETEL
Mean fraction #NGS counts mimetic peptide / total count selection (Scribble PDZ3; mean over selections 1-3): 0.01661

Mean fraction #NGS counts wt peptide / total counts selection (DLG1 PDZ2): 3.877e-6
Substance: LRLQSETSV

Mean fraction #NGS counts wt peptide / total counts selection (DLG1 PDZ2; wild type peptide): 0.003121
Substance: GSGGRQSVV

Mean fraction #NGS counts mimetic peptide / total count selection (DLG1 PDZ2): 0.0002419
Substance: MRLQEETSV

Substance: KYVDAETEL
Mean fraction #NGS counts mimetic peptide / total count selection (Scribble PDZ3; [2]): 0.0004194

Mean fraction #NGS counts wt peptide / total counts selection (Scribble PDZ1): 6.957e-5
Substance: VRKLPSTTL
Mean fraction #NGS counts wt peptide / total counts selection (Scribble PDZ3; [1]): 8.076e-6
Mean fraction #NGS counts wt peptide / total counts selection (Scribble PDZ3; mean over selections 1-3): 8.076e-6

Mean fraction #NGS counts mimetic peptide / total count selection (Scribble PDZ1): 0
Substance: PIHELETSL
Mean fraction #NGS counts mimetic peptide / total count selection (Scribble PDZ3; mean over selections 1-3): 0

Mean fraction #NGS counts mimetic peptide / total count selection (Scribble PDZ1): 0.0004614
Substance: HEKVFESAL
Mean fraction #NGS counts mimetic peptide / total count selection (Scribble PDZ3; mean over selections 1-3): 0.07851

Substance: LSIEKEEKL
Mean fraction #NGS counts mimetic peptide / total count selection (Scribble PDZ3; mean over selections 1-3): 3.894e-6

— paper PMC6100724, “Proteome‐wide analysis of phospho‐regulated PDZ domain interactions” (Molecular Systems Biology, 2018)
